In paper PMC9926489, “Chemical Optimization of Selective Pseudomonas aeruginosa LasB Elastase Inhibitors and Their Impact on LasB-Mediated Activation of IL-1β in Cellular and Animal Infection Models” (ACS Infectious Diseases, 2023):
pIC50: −log10 of the molar value. ≈ marks a conversion by molar mass, not a printed value.

How the values were obtained:
purified LasB = molecular target: T1, purified LasB (Pseudomonas aeruginosa, UniProt P14756); assay: LasB inhibition, fluorimetric Abz-AGLA-Nba hydrolysis assay with purified LasB; type: biochemical
T1 construct: The mature LasB protein is a 33 kDa metalloprotease, which is secreted from P. aeruginosa; host or cells: P. aeruginosa PAO1 (native secretion, culture supernatant)
Source text: (§1) This was chosen as the starting point for a medicinal chemistry-driven lead optimization program aiming to improve potency and solubility whilst retaining selectivity against host metalloenzymes. All synthesized compounds were initially assessed in a fluorimetric assay measuring hydrolysis of a fluorogenic substrate Abz-Ala-Gly-Leu-Ala-4-nitrobenzylamide (Abz-AGLA-Nba) by purified LasB and IC50 values determined (Tables 1 and 2). Inhibition of elastin hydrolytic activity was confirmed using an orthogonal assay measuring hydrolysis of Elastin Congo Red (ECR) complex by LasB prepared directly from a P. aeruginosa culture supernatant (Tables 1 and 2). […] Aqueous solubility was determined for most compounds (Tables 1 and 2).
Native LasB protein was purified from culture supernatants of P. aeruginosa strain PAO1 (Charles River Laboratories, U.K.). Briefly, the sample was concentrated by ultrafiltration and the protein was purified by chromatography using an anion exchange (pH 8.5) step followed by gel filtration. This procedure yielded an enzyme preparation (0.8 mg/mL) of >98% purity. The enzyme was stored at −80 °C.
LasB inhibition assays were performed using purified LasB enzyme (1 ng/well) for compound screening or using culture supernatants (prepared as described in the ECR assay) for testing LasB variants. Hydrolysis of the fluorogenic peptide substrate 2-aminobenzoyl-Ala-Gly-Leu-Ala-4-nitrobenzylamide (Abz-AGLA-Nba; Peptide International) in 50 mM Tris-HCl (pH 7.4), supplemented with 2.5 mM CaCl2 was followed using an Envision microplate reader (PerkinElmer) at 315 nm excitation and 430 nm emission. For screening of lead compounds, assays were performed in the presence of 0.01% Triton X-100 with a range of inhibitor concentrations from 0.003 to 3.2 μM. IC50 values were determined from Hill plots using Dotmatics Studies ELN software. For the mechanism of inhibition studies, hydrolysis rates were measured in the presence of variable concentrations of substrate and inhibitor, and the inhibition constant (Ki) was determined using Dixon plot analysis.[31]

[1] = Thermodynamic solubility in PBS (pH 7.4); type: physicochemical; details: aqueous buffer, thermodynamic from solid
[2] = molecular target: T2, LasB (P. aeruginosa PAO1 culture supernatant) (Pseudomonas aeruginosa, UniProt P14756); assay: Elastin Congo Red (ECR) assay, elastin hydrolysis by dialyzed PAO1 culture supernatant; type: biochemical; details: 25 μM inhibitor
T2 construct: The mature LasB protein is a 33 kDa metalloprotease, which is secreted from P. aeruginosa; endogenous in cells; host or cells: P. aeruginosa PAO1 culture supernatant, filtered and dialyzed
Source text: as §1
Inhibition of elastin hydrolysis by native LasB, secreted in P. aeruginosa culture supernatants, was measured using the Elastin Congo Red (ECR) assay. Culture supernatants from P. aeruginosa strain PAO1, grown in LB medium at 37 °C for 24 h, were filtered and dialyzed against 50 mM Tris-HCl pH 7.4, 2.5 mM CaCl2 solution at 4 °C and supplemented with 0.01%Triton X-100, 10 mg/mL ECR (Sigma) and 25 μM inhibitor compounds. The reaction mixture was incubated for 16 h at 37 °C with shaking before centrifugation and recovery of the supernatant and measurement of solubilized congo red by absorbance (OD495) using an EnSight multimode plate reader (PerkinElmer).

IL-1β activation = IL-1β activation in P. aeruginosa-infected THP-1 macrophages (HEK IL-1R-lux reporter assay); type: cell-based, human; details: infected THP-1 cells, 5 μM
Description: (§2) Further to showing in vitro inhibition of LasB-mediated pro-IL-1β proteolysis, experiments were performed to determine the effect of compounds 12 and 16 on IL-1β activation and functionality in human macrophage cell cultures infected with P. aeruginosa PAO1, or an isogenic lasB deletion mutant thereof (ΔlasB). In these experiments, the levels of LasB activity in culture supernatants were measured via hydrolysis of the Sub115 fluorescent peptide, while the effect of LasB activity on IL-1β activation (functionality) was measured using a luciferase reporter cell line sensitive to IL-1β induction (Figure 3).
Human THP-1 macrophages were cultured by conventional methods then, pre-infection, culture media were replaced by RPMI lacking phenol red and antibiotics. […] After 2 h post-infection, 50 μL aliquots of supernatant were removed and used to quantitate both LasB activity and IL-1β functionality. To determine LasB activity, 50 μL of supernatant was added to Sub115 IL-1β peptide and hydrolysis of Sub115 was monitored spectrophotometrically with excitation at 355 nm and emission at 450 nm, as described above. Results were expressed as relative fluorescence units (RFU).
To determine IL-1β functionality, generation of an IL-1 signal was quantified by adding 50 μL of supernatant to HEK IL-1R-lux reporter cells cultured in RPMI supplemented with 5% heat-inactivated FBS, 200 μg/mL penicillin/streptomycin, 200 μg/mL hygromycin, 100 μg/mL zeomycin, and 0.5 μg/mL puromycin. No bacteria survived in this antibiotic condition; 18 h post-treatment, IL-1β-dependent luciferase induction was assayed by luminescence measured with D-luciferin substrate (Steady-Luc, Biotium) on a multimode reader (PerkinElmer) and expressed as relative luminescence units (RU), as previously described.[16]
In the first variation, experimental infections were performed with P. aeruginosa PAO1 and ΔlasB bacteria incubated with varying quantities of inhibitor at final concentrations ranging from 0.5 to 8 μM. […]

[3] = molecular target: T3, secreted LasB in P. aeruginosa PAO1-infected THP-1 macrophages (Pseudomonas aeruginosa, UniProt P14756); assay: LasB activity (Sub115 hydrolysis) in supernatants of P. aeruginosa-infected THP-1 macrophages; type: cell-based; details: infected THP-1 cells, 5 μM
T3 construct: The mature LasB protein is a 33 kDa metalloprotease, which is secreted from P. aeruginosa; endogenous in cells; host or cells: P. aeruginosa PAO1 infecting human THP-1 macrophages (MOI 10:1); supernatant after 2 h
Description: as §2
Human THP-1 macrophages were cultured by conventional methods then, pre-infection, culture media were replaced by RPMI lacking phenol red and antibiotics. Compounds VX-765 (caspase-1 inhibitor, developed by Vertex) and/or LasB inhibitors were added, immediately followed by inoculation with P. aeruginosa PAO1 or an isogenic lasB deletion mutant (ΔlasB), previously grown in Luria broth to late exponential phase (OD600 = 1.2) then washed and diluted in PBS, at a multiplicity of infection (MOI) of 10 to 1. After 2 h post-infection, 50 μL aliquots of supernatant were removed and used to quantitate both LasB activity and IL-1β functionality. To determine LasB activity, 50 μL of supernatant was added to Sub115 IL-1β peptide and hydrolysis of Sub115 was monitored spectrophotometrically with excitation at 355 nm and emission at 450 nm, as described above. Results were expressed as relative fluorescence units (RFU).
In the first variation, experimental infections were performed with P. aeruginosa PAO1 and ΔlasB bacteria incubated with varying quantities of inhibitor at final concentrations ranging from 0.5 to 8 μM. In the second, cells were treated and infected in the same manner and also treated with 5 μM VX-765 to provide a control for IL-1β activation by the inflammasome pathway.

T1 sequence (P14756 198-498): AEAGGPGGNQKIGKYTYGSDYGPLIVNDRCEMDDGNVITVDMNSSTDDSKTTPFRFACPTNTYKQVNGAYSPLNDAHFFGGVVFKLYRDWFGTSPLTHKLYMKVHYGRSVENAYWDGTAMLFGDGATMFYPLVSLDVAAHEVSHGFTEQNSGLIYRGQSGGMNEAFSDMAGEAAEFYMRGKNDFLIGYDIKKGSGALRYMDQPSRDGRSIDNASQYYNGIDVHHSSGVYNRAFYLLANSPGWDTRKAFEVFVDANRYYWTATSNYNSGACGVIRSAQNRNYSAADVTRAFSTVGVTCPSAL
T2 sequence (P14756 198-498): as above
T3 sequence (P14756 198-498): as above

SMILES: COc1cc2nc(CNC(=O)C3(CC(=O)O)Cc4ccccc4C3)sc2cc1OC [Compound 4]
- pIC50 (purified LasB): 7.70
- solubility [1]: 2 mg/mL (≈ 4.69 mM)
- Elastin hydrolysis @ 25 μM (% inh) [2]: 82 % inh

SMILES: O=C(O)CC1(C(=O)NCc2nc3cc(Cl)ccc3s2)Cc2ccccc2C1 [Compound 2]
- pIC50 (purified LasB): 6.46
- Elastin hydrolysis @ 25 μM (% inh) [2]: 58 % inh

SMILES: COc1cc2sc(CNC(=O)C3(CC(=O)O)Cc4cc(F)c(F)cc4C3)nc2cc1OCC1CC[N+](C)(C)CC1 [Compound 14]
- pIC50 (purified LasB): 7.05
- solubility [1]: 17.8 mg/mL
- Elastin hydrolysis @ 25 μM (% inh) [2]: 72 % inh

SMILES: COc1cc2sc(CNC(=O)C3(CC(=O)O)Cc4ccccc4C3)nc2cc1OCCCN(C)C [Compound 11]
- pIC50 (purified LasB): 7.10
- Elastin hydrolysis @ 25 μM (% inh) [2]: 69 % inh

SMILES: C[N+]1(C)CCN(c2ccc3nc(CNC(=O)C4(CC(=O)O)Cc5ccccc5C4)sc3c2)CC1 [Compound 8]
- pIC50 (purified LasB): 5.87
- solubility [1]: 18.7 mg/mL
- Elastin hydrolysis @ 25 μM (% inh) [2]: 33 % inh

SMILES: O=C(O)CC1(C(=O)NCc2nc3cc4c(cc3s2)OCO4)Cc2ccccc2C1 [Compound 5]
- pIC50 (purified LasB): 6.92
- solubility [1]: 2 mg/mL (≈ 4.87 mM)
- Elastin hydrolysis @ 25 μM (% inh) [2]: 75 % inh

SMILES: C[N+](C)(C)CCOc1ccc2sc(CNC(=O)C3(CC(=O)O)Cc4ccccc4C3)nc2c1 [Compound 9]
- pIC50 (purified LasB): 6.09
- solubility [1]: 18.1 mg/mL
- Elastin hydrolysis @ 25 μM (% inh) [2]: 40 % inh

SMILES: O=C(O)CC1(C(=O)NCc2nc3ccccc3s2)Cc2cc(F)c(F)cc2C1 [Compound 10]
- pIC50 (purified LasB): 6.85
- solubility [1]: 0.6 mg/mL (≈ 1.49 mM)
- Elastin hydrolysis @ 25 μM (% inh) [2]: 66 % inh

SMILES: COc1ccc2sc(CNC(=O)C3(CC(=O)O)Cc4ccccc4C3)nc2c1 [Compound 3]
- pIC50 (purified LasB): 6.82
- Elastin hydrolysis @ 25 μM (% inh) [2]: 64 % inh

SMILES: COc1cc2sc(CNC(=O)C3(CC(=O)O)Cc4ccccc4C3)nc2cc1OCC1CC[N+](C)(C)CC1 [Compound 13]
- pIC50 (purified LasB): 6.89
- solubility [1]: 15.8 mg/mL
- Elastin hydrolysis @ 25 μM (% inh) [2]: 66 % inh

SMILES: CCO[C@@H]1OC(=O)C[C@@H]1NC(=O)[C@@H]1CCCN1C(=O)[C@@H](NC(=O)c1ccc(N)c(Cl)c1)C(C)(C)C [VX-765, reference compound]
- effect on IL-1β activation (IL-1β activation): reduced IL-1β activation
- effect on LasB activity [3]: no effect

SMILES: CN1CCN(c2ccc3nc(CNC(=O)C4(CC(=O)O)Cc5ccccc5C4)sc3c2)CC1 [Compound 6]
- pIC50 (purified LasB): 5.80
- solubility [1]: 3.4 mg/mL (≈ 7.32 mM)
- Elastin hydrolysis @ 25 μM (% inh) [2]: 39 % inh

SMILES: O=C(O)CC1(C(=O)NCc2nc3ccccc3s2)Cc2ccccc2C1 [Compound 1]
- pIC50 (purified LasB): 6.39
- solubility [1]: 0.58 mg/mL (≈ 1.58 mM)
- Elastin hydrolysis @ 25 μM (% inh) [2]: 69 % inh

SMILES: COc1cc2sc(CNC(=O)C3(CC(=O)O)Cc4ccccc4C3)nc2cc1OCCC[N+](C)(CCO)CCO [Compound 15]
- pIC50 (purified LasB): 6.72
- solubility [1]: 17.6 mg/mL
- Elastin hydrolysis @ 25 μM (% inh) [2]: 69 % inh

SMILES: CN(C)CCOc1ccc2sc(CNC(=O)C3(CC(=O)O)Cc4ccccc4C3)nc2c1 [Compound 7]
- pIC50 (purified LasB): 6.17
- solubility [1]: 4.2 mg/mL (≈ 9.26 mM)
- Elastin hydrolysis @ 25 μM (% inh) [2]: 42 % inh
